Experimental data published in patent publication US4175081A, “5-Substituted thiadiazole ureas” (priority 1977, dated 1979).

Key:
Turnip (TP) [1] = test: Pre-emergence herbicide test; type: in vivo, Brassica sp.; conditions: Brassica rapa, pre-emergence, 336 h, two weeks after treatment
In short: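 Turnip (Brassica sp.) seeds were surface sown in 3' plastic pots of potting soil, covered with a thin layer of screened soil, and sub-irrigated in greenhouse trays. Pots were seeded one day ahead of treatment, sprayed pre-emergence under a hood with a fixed nozzle and moving belt, then kept in the greenhouse.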

Cotton (CT) [2] = test: Post-emergence herbicide test; type: in vivo, Gossypium hirsutum var. DPL smooth leaf; conditions: Gossypium hirsutum, post-emergence, 336 h, two weeks after treatment
In short: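 Cotton (Gossypium hirsutum var. DPL smooth leaf) was grown in 3' plastic pots of potting soil, four seeds per pot, planted at a depth equal to the seed diameter and watered by sub-irrigation. At the stage of expanded cotyledons with the first true leaf 1' long, plants were sprayed post-emergence in a hood with a fixed nozzle over a moving belt. Percent control was rated visually two weeks later.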

Barnyard grass (BG) = test: Pre-emergence herbicide test; type: in vivo; conditions: Echinochloa crus-galli, 336 h, two weeks after treatment
In short: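 Barnyard grass surface-seeded in potting soil and sprayed pre-emergence one day after seeding, at 8 or 4 lb compound/acre in 38 gal/acre spray volume. Pots kept in greenhouse with sub-irrigation only; injury or control rated visually two weeks after treatment.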

Cotton (CT) [3] = test: Pre-emergence herbicide test; type: in vivo, Gossypium hirsutum var. DPL smooth leaf; conditions: Gossypium hirsutum, 336 h, two weeks after treatment
In short: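 Crop and weed species seeded one day before treatment, then sprayed pre-emergence at 8 lbs actual compound per acre (also 4 lbs/acre formulations) in 38 gallons per acre. Pots kept in greenhouse with sub-irrigation only; injury or control visually rated two weeks after treatment.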

Bean (BN) [4] = test: Post-emergence herbicide test; type: in vivo, Phaseolus vulgaris var. Black Valentine; conditions: Phaseolus vulgaris, post-emergence, 336 h, two weeks after treatment
In short: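 Snapbean (Phaseolus vulgaris var. Black Valentine) was tested post-emergence. Four seeds were sown in 3' plastic pots of potting soil at a depth equal to the seed diameter, then sub-irrigated in greenhouse trays. Planting dates were staggered so plants were sprayed once primary leaves had expanded, with the growing point at the primary leaf nodes.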

Amaranth pigweed (PW) = test: Pre-emergence herbicide test; type: in vivo, Amaranthus retroflexus; conditions: 336 h, two weeks after treatment
Protocol: All crop and weed species were planted individually in 3' plastic pots containing potting soil. Four seeds each of corn, cotton, and snapbeans were seeded to a depth equal to the diameter of the seed. All other species were surface seeded and sprinkled with screened soil in an amount sufficient to cover the seed. Immediately after planting, all pots were watered by sub-irrigation in greenhouse trays. Pots for the pre-emergence phase were seeded one day before treatment.
Compounds were tested at rates of application equivalent to 8 lbs. of actual compound per acre in a spray volume of 38 gallons per acre. Spray hood constants required to deliver the above volume are as follows:
Formulations for spray applications were prepared in 50 ml volumes with the following three components:
Formulations for the 4 lbs/acre rate were prepared by adjusting the amount of active ingredient accordingly.
Spray applications were made in a hood containing a removable belt and fixed spray nozzle. For passage through the spray hood, one pot of each specie (pre-emergence phase) was placed on the rear half of the flat. Treatments were removed to the greenhouse after spraying. Watering during the observation period was done only by sub-irrigation.
Two weeks after treatment, pre- and post-emergence injury or control was visually rated, and the results were as shown in the following tables. Pre-emergence data are provided in TABLE III and post-emergence data are provided in TABLE IV, for compounds having the formula illustrated in TABLE I. Correspondingly, pre-emergence and post-emergence data, respectively, are set forth in TABLES V AND VI, for compounds having the formula illustrated in TABLE II.

Crabgrass (CG) [5] = test: Pre-emergence herbicide test; type: in vivo, Digitaria sanquinalis; conditions: Digitaria sanguinalis, pre-emergence, 336 h, two weeks after treatment
In short: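 Crabgrass (Digitaria sanquinalis) was surface seeded in 3' plastic pots of potting soil, covered with screened soil, and watered by sub-irrigation in greenhouse trays. Pots were seeded one day before spraying in a hood with a moving belt and fixed nozzle. Plants stayed in the greenhouse on sub-irrigation, and pre-emergence control was rated visually two weeks after treatment.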

Bean (BN) [6] = test: Pre-emergence herbicide test; type: in vivo, Phaseolus vulgaris var. Black Valentine; conditions: Phaseolus vulgaris, 336 h, two weeks after treatment
In short: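 Black Valentine bean was seeded in potting soil one day before spraying. Compound was applied pre-emergence at 8 lbs/acre (also 4 lbs/acre) in 38 gallons per acre. Plants were sub-irrigated and injury or control was rated visually after two weeks.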

Crabgrass (CG) [7] = test: Post-emergence herbicide test; type: in vivo, Digitaria sanquinalis; conditions: Digitaria sanguinalis, post-emergence, 336 h, two weeks after treatment
In short: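 Crabgrass (Digitaria sanquinalis) was surface seeded individually in 3' plastic pots of potting soil, covered with screened soil, and watered by sub-irrigation in greenhouse trays. Planting was staggered so seedlings reached the target stage together. Post-emergence sprays were applied in a hood with a removable belt and fixed nozzle, and control was visually rated two weeks after treatment.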

Corn (CN) = test: Pre-emergence herbicide test; type: in vivo; conditions: Zea mays, 336 h, two weeks after treatment
In short: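 Four corn seeds per pot, sown at seed-diameter depth one day before spraying, got soil surface treatment at 8 lbs/acre (4 lbs/acre formulations also prepared) in 38 gallons/acre. Pots were greenhouse-held with sub-irrigation only. Injury or control was scored visually two weeks after treatment.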

Johnson grass (JG) = test: Pre-emergence herbicide test; type: in vivo, Sorgum helepense; conditions: Sorghum halepense, 336 h, two weeks after treatment
In short: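 Pots seeded one day before spraying; compound applied pre-emergence at 8 lbs/acre (or 4 lbs/acre) in 38 gallons/acre spray volume. Sub-irrigated in greenhouse; injury/control rated visually two weeks after treatment.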

Turnip (TP) [8] = test: Post-emergence herbicide test; type: in vivo, Brassica sp.; conditions: Brassica rapa, post-emergence, 336 h, two weeks after treatment
In short: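 A greenhouse post-emergence herbicide test on turnip. Seeds were sown on the surface of potting soil in 3' plastic pots, lightly covered with screened soil and watered from below. Planting was timed so seedlings had 1 or 2 true leaves above the cotyledons at spraying, done in a hood with a fixed nozzle. Control or injury was scored by eye after two weeks.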

CCSc1nnc(N(C)C(=O)NC)s1 [Example 89]
10%: pest or weed control at 560.425 g/ha (Cotton (CT) [3]; 0.5 lb/acre) | pest or weed control at 1120.85 g/ha (Cotton (CT) [3]; 1 lb/acre) | pest or weed control at 2241.7 g/ha (Cotton (CT) [3]; 2 lb/acre) | pest or weed control at 560.425 g/ha (Bean (BN) [6]; 0.5 lb/acre) | pest or weed control at 1120.85 g/ha (Bean (BN) [6]; 1 lb/acre) | pest or weed control at 2241.7 g/ha (Bean (BN) [6]; 2 lb/acre) | pest or weed control at 4483.4 g/ha (Bean (BN) [6]; 4 lb/acre) | pest or weed control at 560.425 g/ha (Corn (CN); 0.5 lb/acre)
80%: pest or weed control at 2241.7 g/ha (Turnip (TP) [1]; 2 lb/acre) | pest or weed control at 1120.85 g/ha (Barnyard grass (BG); 1 lb/acre) | pest or weed control at 2241.7 g/ha (Barnyard grass (BG); 2 lb/acre) | pest or weed control at 2241.7 g/ha (Johnson grass (JG); 2 lb/acre)
40%: pest or weed control at 560.425 g/ha (Crabgrass (CG) [7]; 0.5 lb/acre) | pest or weed control at 2241.7 g/ha (Corn (CN); 2 lb/acre) | pest or weed control at 560.425 g/ha (Johnson grass (JG); 0.5 lb/acre)
90%: pest or weed control at 4483.4 g/ha (Turnip (TP) [1]; 4 lb/acre) | pest or weed control at 560.425 g/ha (Cotton (CT) [2]; 0.5 lb/acre) | pest or weed control at 560.425 g/ha (Bean (BN) [4]; 0.5 lb/acre) | pest or weed control at 1120.85 g/ha (Crabgrass (CG) [5]; 1 lb/acre) | pest or weed control at 2241.7 g/ha (Crabgrass (CG) [5]; 2 lb/acre) | pest or weed control (Crabgrass (CG) [7]; 2 lb/acre) | pest or weed control at 4483.4 g/ha (Crabgrass (CG) [7]; 4 lb/acre)
100%: pest or weed control at 1120.85 g/ha (Cotton (CT) [2]; 1 lb/acre) | pest or weed control at 2241.7 g/ha (Cotton (CT) [2]; 2 lb/acre) | pest or weed control at 4483.4 g/ha (Cotton (CT) [2]; 4 lb/acre) | pest or weed control at 4483.4 g/ha (Barnyard grass (BG); 4 lb/acre) | pest or weed control at 1120.85 g/ha (Bean (BN) [4]; 1 lb/acre) | pest or weed control at 2241.7 g/ha (Bean (BN) [4]; 2 lb/acre) | pest or weed control at 4483.4 g/ha (Bean (BN) [4]; 4 lb/acre) | pest or weed control at 1120.85 g/ha (Amaranth pigweed (PW); 1 lb/acre) | pest or weed control at 2241.7 g/ha (Amaranth pigweed (PW); 2 lb/acre) | pest or weed control at 4483.4 g/ha (Amaranth pigweed (PW); 4 lb/acre) | pest or weed control at 4483.4 g/ha (Crabgrass (CG) [5]; 4 lb/acre) | pest or weed control at 560.425 g/ha (Turnip (TP) [8]; 0.5 lb/acre) | pest or weed control at 1120.85 g/ha (Turnip (TP) [8]; 1 lb/acre) | pest or weed control at 2241.7 g/ha (Turnip (TP) [8]; 2 lb/acre) | pest or weed control at 4483.4 g/ha (Turnip (TP) [8]; 4 lb/acre)
50%: pest or weed control at 4483.4 g/ha (Cotton (CT) [3]; 4 lb/acre) | pest or weed control at 560.425 g/ha (Crabgrass (CG) [5]; 0.5 lb/acre) | pest or weed control at 1120.85 g/ha (Crabgrass (CG) [7]; 1 lb/acre) | pest or weed control at 1120.85 g/ha (Corn (CN); 1 lb/acre) | pest or weed control at 4483.4 g/ha (Corn (CN); 4 lb/acre) | pest or weed control at 1120.85 g/ha (Johnson grass (JG); 1 lb/acre)
30%: pest or weed control at 560.425 g/ha (Turnip (TP) [1]; 0.5 lb/acre) | pest or weed control at 560.425 g/ha (Barnyard grass (BG); 0.5 lb/acre)
70%: pest or weed control at 1120.85 g/ha (Turnip (TP) [1]; 1 lb/acre) | pest or weed control at 560.425 g/ha (Amaranth pigweed (PW); 0.5 lb/acre) | pest or weed control at 4483.4 g/ha (Johnson grass (JG); 4 lb/acre)
